Source: patent US9962364B2, “Wound healing accelerator” (priority 2012, dated 2018)

System: mouse-derived 3T3-L1 fibroblasts
Test: Cell growth of mouse fibroblasts by MTT assay after treating for one minute (Tests 1, 2, 4)
Assay type: cell-based
Details: treatment for 1 minute, then 24 hours of culture, versus physiological saline control
Experimental: Specifically, after 20 hours of culture, 10 μl of MTT reagent (from Trevigen Inc.) was added to each well and the cells were further cultured for 4 hours under conditions of 37° C. and 5% CO2. After the culture, 100 μl of the Detergent Reagent (Trevigen Inc.) was each added and the cells were left in the dark overnight at room temperature. The absorbance at 595 nm was then determined using a microplate reader (FilterMaxTM F5 Multi-Mode Microplate Reader, Molecular Devices, LLC.). […] The absorbance of the control group in Test 1 was 0.289±0.016. Gallic acid (from Tokyo Chemical Industry Co., Ltd.), caffeic acid (from Tokyo Chemical Industry Co., Ltd.), (+)-catechin (from Tokyo Chemical Industry Co., Ltd.) and chlorogenic acid (from Sigma-Aldrich Co. LLC.) were assayed. […] The absorbance of the control group in Test 2 was 0.196±0.011. Green tea extract (from MARUZEN PHARMACEUTICALS CO., LTD.) was assayed. […] The absorbance of the control group in Test 4 was 0.276±0.010.

O=C(O)c1cc(O)c(O)c(O)c1 [gallic acid]
growth of fibroblasts (extent of cell growth by MTT assay): no growth of fibroblasts was observed
